The results in this text go back to patent US8536160B2, “Azaheterocyclyl derivatives of androstanes and androstenes as medicaments for cardiovascular disorders” (priority 2006, dated 2013).

Data set [1] deals with hypertensive ouabain-sensitive rats (OS rats). Kind of data set: Systolic blood pressure fall in hypertensive ouabain-sensitive rats (OS rats). The data set is classed as in vivo, rat. As to conditions: 10 μg/kg/day by mouth for four weeks. Here is the method: The ability of these compounds to lower blood pressure was tested by using an animal model with induced hypertension, in particular, rats made hypertensive by chronic infusion of ouabain, according to Ferrari P., et al. J. Pharm. Exp. Ther. 1998, 285, 83-94.
The procedure adopted to test the antihypertensive activity of the compounds on the above mentioned model was the following: systolic blood pressure (SBP) and heart rate (HR) were measured by an indirect tailcuff method. The blood pressure lowering effect was measured in hypertensive ouabain-sensitive rats. The compound, suspended in Methocel 0.5% (w/v), was administered daily at the dose of 10 μg/kg/day by mouth for four weeks. SBP and HR were measured weekly 6 hours after the treatment. The comparison are ouabain sensitive rats (OS rats) and non hypertensive rats (control), both treated only with Methocel 0.5% (w/v). As shown in the following Table 4, treatment with a compound of the present invention lowers the blood pressure of OS rats (170 mm Hg) to almost the level of control rats (150 mm Hg).

The subject of a further data set is fresh rat hepatocytes. Kind of data set: Metabolism in fresh rat hepatocytes. As to conditions: test item nominal concentration 45 μM, 2590000-3084000 hepatocytes/ml.
In data set [2] the target is Dog Kidney Na+, K+-ATPase (Canis lupus familiaris, UniProt P50997). Kind of data set: Inhibition of the enzymatic activity of purified Na+,K+-ATPase (hydrolysis of 32P-ATP). The note with it: read-out: Na+, K+-ATPase Inhibition IC50. The data set is classed as biochemical.

In the case of `C=C1C[C@@H]2[C@H](CC[C@]3(C)C(=O)CC[C@@H]23)[C@@]2(C)CC[C@@H](SC3CCNC3)CC12.O=C(O)/C=C/C(=O)O` (mixture of isomers) [I-db, 3α-[3-(RS)-Pyrrolidinylthio]-6-methyleneandrostane-17-one fumarate], the HR beats/min. in data set [1] came out at 387 beats/min. Besides, the HR % beats/min result in data set [1] (change versus OS rats on vehicle) is listed as “+6.6%”. Also, the “SBP mmHg” value in data set [1] (measured 6 hours after treatment, tail-cuff) stood at 153.0 mmHg. In data set [1] (versus OS rats on vehicle), the SBP - % amounted to 10.3% and the “SBP - mmHg (fall)” value is listed as 17.0 mmHg. Moreover, in the data set with fresh rat hepatocytes, the “% of compound metabolized after 60 minutes” value is 25%. For the same molecule, the IC50 in data set [2] came out at 20 µM.
